The source made the active and inactive calls. The calls are words filed in the database; no cut-off is given here.
Assays:
[1] = target: T1, Histone deacetylase 2 (Homo sapiens, UniProt Q92769); experiment: Inhibition of recombinant human HDAC2 at 1 uM using p53 (Ac-RHKK(Acetyl)-AMC) as substrate preincubated for 5 mins followed by substrate addition and measured after 30 mins by fluorescence based analysis relative to control; details: time 35.0 min
[2] = target: T2, Histone deacetylase 1 (Homo sapiens, UniProt Q13547); experiment: Inhibition of recombinant human HDAC1 at 1 uM using p53 (Ac-RHKK(Acetyl)-AMC) as substrate preincubated for 5 mins followed by substrate addition and measured after 90 mins by fluorescence based analysis relative to control; details: time 95.0 min
[3] = target: T3, Histone deacetylase 3 (Homo sapiens, UniProt O15379); experiment: Inhibition of recombinant human HDAC3 at 10 uM using p53 (Ac-RHKK(Acetyl)-AMC) as substrate preincubated for 5 mins followed by substrate addition and measured after 30 mins by fluorescence based analysis relative to control; details: time 35.0 min
[4] = target: T4, Histone deacetylase 8 (Homo sapiens) (UniProt Q9BY41); experiment: Inhibition of recombinant human HDAC8 at 1 uM using (Abz-SRGK(thio-TFA)FFRR-NH2) as substrate preincubated for 5 mins followed by substrate addition by fluorescence based analysis relative to control
T4 sequence (whole entry): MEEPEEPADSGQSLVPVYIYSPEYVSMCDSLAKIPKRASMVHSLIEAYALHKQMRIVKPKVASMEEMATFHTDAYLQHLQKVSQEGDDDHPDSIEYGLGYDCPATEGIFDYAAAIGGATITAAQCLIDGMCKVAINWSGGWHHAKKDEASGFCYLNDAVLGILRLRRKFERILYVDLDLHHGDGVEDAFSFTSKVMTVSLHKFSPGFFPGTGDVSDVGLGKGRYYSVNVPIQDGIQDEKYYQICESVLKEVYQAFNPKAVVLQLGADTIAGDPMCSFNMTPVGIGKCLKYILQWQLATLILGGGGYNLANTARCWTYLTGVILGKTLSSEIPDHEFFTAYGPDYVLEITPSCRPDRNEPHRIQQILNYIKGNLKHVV

[5] = tested on: HEK293; experiment: Cytotoxicity against HEK293 cells assessed as reduction in cell viability at 50 uM after 24 hrs by alamar blue assay; type: toxicity, cell-based; details: human, hek293, 24 h
[6] = target: T3, Histone deacetylase 3; experiment: Inhibition of recombinant human HDAC3 at 1 uM using p53 (Ac-RHKK(Acetyl)-AMC) as substrate preincubated for 5 mins followed by substrate addition and measured after 30 mins by fluorescence based analysis relative to control; details: time 35.0 min
[7] = target: T1, Histone deacetylase 2; experiment: Inhibition of recombinant human HDAC2 at 10 uM using p53 (Ac-RHKK(Acetyl)-AMC) as substrate preincubated for 5 mins followed by substrate addition and measured after 30 mins by fluorescence based analysis relative to control; details: time 35.0 min
[8] = target: T2, Histone deacetylase 1; experiment: Inhibition of recombinant human HDAC1 at 10 uM using p53 (Ac-RHKK(Acetyl)-AMC) as substrate preincubated for 5 mins followed by substrate addition and measured after 90 mins by fluorescence based analysis relative to control; details: time 95.0 min
[9] = target: T4, Histone deacetylase 8 (Homo sapiens); experiment: Inhibition of recombinant human HDAC8 at 10 uM using (Abz-SRGK(thio-TFA)FFRR-NH2) as substrate preincubated for 5 mins followed by substrate addition by fluorescence based analysis relative to control
[10] = tested on: HEK293; experiment: Cytotoxicity against HEK293 cells assessed as reduction in cell viability after 24 hrs by alamar blue assay; type: functional, cell-based; details: Homo sapiens, HEK293, 24 h
[11] = Stability of compound in DMEM/DMSO/acetonitrile at pH 7.4 measured after 72 hrs by HPLC analysis; type: physicochemical; details: read-out: Stability
[12] = target: T5, Histone deacetylase 11 (Homo sapiens, UniProt Q96DB2); experiment: Inhibition of recombinant human HDAC11 preincubated for 10 mins followed by substrate addition by fluorescence based analysis
T5 sequence (Q96DB2 whole entry): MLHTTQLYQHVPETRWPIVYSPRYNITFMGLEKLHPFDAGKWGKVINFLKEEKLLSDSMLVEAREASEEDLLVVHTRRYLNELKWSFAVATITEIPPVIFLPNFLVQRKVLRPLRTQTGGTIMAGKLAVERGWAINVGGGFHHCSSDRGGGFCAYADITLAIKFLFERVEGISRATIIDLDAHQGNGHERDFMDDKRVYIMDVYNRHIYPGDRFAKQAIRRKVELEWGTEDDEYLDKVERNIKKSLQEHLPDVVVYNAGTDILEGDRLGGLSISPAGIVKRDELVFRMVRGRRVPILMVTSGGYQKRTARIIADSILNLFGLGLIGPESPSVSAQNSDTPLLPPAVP

[13] = Stability of compound in DMEM/DMSO/acetonitrile at pH 7.4 measured after 48 hrs by HPLC analysis; type: physicochemical; details: read-out: Stability
[14] = target: T6, Histone deacetylase 8 (Homo sapiens, UniProt Q9BY41); experiment: Inhibition of recombinant human HDAC8 using (Abz-SRGK(thio-TFA)FFRR-NH2) as substrate preincubated for 5 mins followed by substrate addition by fluorescence based analysis
T6 sequence (Q9BY41 whole entry): T4 sequence (whole entry)

[15] = target: T2, Histone deacetylase 1; experiment: Inhibition of recombinant human HDAC1 using p53 (Ac-RHKK(Acetyl)-AMC) as substrate preincubated for 5 mins followed by substrate addition and measured after 90 mins by fluorescence based analysis
[16] = Stability of compound in DMEM/DMSO/acetonitrile at pH 7.4 measured after 24 hrs by HPLC analysis; type: physicochemical; details: read-out: Stability
[17] = target: T3, Histone deacetylase 3; experiment: Inhibition of recombinant human HDAC3 using p53 (Ac-RHKK(Acetyl)-AMC) as substrate preincubated for 5 mins followed by substrate addition and measured after 30 mins by fluorescence based analysis
[18] = target: T7, Protein deacetylase HDAC6 (Homo sapiens, UniProt Q9UBN7); experiment: Inhibition of recombinant human HDAC6 (unknown origin)
T7 sequence (Q9UBN7 whole entry): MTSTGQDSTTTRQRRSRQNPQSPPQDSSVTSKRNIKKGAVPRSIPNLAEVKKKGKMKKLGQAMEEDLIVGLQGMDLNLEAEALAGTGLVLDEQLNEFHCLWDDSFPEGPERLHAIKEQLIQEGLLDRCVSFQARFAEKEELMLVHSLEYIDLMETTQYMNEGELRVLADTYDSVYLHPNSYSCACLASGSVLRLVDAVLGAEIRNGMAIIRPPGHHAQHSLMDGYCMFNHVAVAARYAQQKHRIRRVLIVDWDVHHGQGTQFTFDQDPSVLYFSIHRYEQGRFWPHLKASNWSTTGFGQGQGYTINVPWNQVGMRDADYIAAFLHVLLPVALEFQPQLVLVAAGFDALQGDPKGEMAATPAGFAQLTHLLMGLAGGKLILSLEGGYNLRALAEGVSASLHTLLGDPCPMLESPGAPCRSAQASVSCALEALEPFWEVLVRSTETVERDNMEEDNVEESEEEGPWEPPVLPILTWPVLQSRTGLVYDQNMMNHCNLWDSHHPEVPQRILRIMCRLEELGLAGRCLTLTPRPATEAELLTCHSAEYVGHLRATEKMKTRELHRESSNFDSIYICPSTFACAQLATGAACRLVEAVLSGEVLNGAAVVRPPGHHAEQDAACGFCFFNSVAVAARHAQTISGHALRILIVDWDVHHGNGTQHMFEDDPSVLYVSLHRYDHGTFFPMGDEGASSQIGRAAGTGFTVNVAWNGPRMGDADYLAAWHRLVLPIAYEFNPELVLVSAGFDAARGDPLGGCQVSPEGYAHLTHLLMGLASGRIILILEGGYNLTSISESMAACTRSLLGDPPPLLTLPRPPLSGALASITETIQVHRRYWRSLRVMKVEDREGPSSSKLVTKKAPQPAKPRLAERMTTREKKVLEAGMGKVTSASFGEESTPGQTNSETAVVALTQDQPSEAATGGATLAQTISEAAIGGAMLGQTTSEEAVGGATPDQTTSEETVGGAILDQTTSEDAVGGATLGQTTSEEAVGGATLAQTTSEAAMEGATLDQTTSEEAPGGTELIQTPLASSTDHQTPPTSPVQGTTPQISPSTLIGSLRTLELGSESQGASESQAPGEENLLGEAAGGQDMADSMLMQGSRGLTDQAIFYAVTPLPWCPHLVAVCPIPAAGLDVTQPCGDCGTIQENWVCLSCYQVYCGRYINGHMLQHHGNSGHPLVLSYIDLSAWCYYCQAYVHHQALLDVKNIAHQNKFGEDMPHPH

[19] = Stability of compound in DMEM/DMSO/acetonitrile at pH 7.4 measured after 12 hrs by HPLC analysis; type: physicochemical; details: read-out: Stability
[20] = Stability of compound in DMEM/DMSO/acetonitrile at pH 7.4 measured after 6 hrs by HPLC analysis; type: physicochemical; details: read-out: Stability
[21] = target: Histone deacetylase 4 (Homo sapiens, UniProt P56524); experiment: Inhibition of HDAC4 (unknown origin)
[22] = target: T1, Histone deacetylase 2; experiment: Inhibition of recombinant human HDAC2 using p53 (Ac-RHKK(Acetyl)-AMC) as substrate preincubated for 5 mins followed by substrate addition and measured after 30 mins by fluorescence based analysis
[23] = target: T4, Histone deacetylase 8 (Homo sapiens); experiment: Reversible binding affinity to recombinant human HDAC8 incubated for 30 mins by jump dilution method
[24] = target: T6, Histone deacetylase 8; experiment: Competitive inhibition of human HDAC8 using Abz-SRGGK(STFA)FFRR-NH2 (S) as substrate by Lineweaver-burk plot analysis
[25] = target: T4, Histone deacetylase 8 (Homo sapiens); experiment: Inhibition of HDAC8 in human Jurkat T cells assessed as increase in H3K27 acetylation at 10 uM after 6 hrs by Western blot analysis; type: cell-based

T3 sequence (O15379 whole entry): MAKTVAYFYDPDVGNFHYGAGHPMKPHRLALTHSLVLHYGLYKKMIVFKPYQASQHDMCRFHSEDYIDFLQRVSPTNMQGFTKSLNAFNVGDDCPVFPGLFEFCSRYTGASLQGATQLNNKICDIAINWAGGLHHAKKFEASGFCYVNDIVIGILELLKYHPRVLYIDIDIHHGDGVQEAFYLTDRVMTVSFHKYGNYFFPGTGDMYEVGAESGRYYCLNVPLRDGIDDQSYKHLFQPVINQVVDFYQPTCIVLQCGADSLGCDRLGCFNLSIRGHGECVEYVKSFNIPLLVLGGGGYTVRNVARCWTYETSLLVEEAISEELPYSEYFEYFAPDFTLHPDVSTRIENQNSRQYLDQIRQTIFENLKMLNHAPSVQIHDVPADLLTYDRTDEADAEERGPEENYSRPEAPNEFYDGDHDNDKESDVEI
T1 sequence (Q92769 whole entry): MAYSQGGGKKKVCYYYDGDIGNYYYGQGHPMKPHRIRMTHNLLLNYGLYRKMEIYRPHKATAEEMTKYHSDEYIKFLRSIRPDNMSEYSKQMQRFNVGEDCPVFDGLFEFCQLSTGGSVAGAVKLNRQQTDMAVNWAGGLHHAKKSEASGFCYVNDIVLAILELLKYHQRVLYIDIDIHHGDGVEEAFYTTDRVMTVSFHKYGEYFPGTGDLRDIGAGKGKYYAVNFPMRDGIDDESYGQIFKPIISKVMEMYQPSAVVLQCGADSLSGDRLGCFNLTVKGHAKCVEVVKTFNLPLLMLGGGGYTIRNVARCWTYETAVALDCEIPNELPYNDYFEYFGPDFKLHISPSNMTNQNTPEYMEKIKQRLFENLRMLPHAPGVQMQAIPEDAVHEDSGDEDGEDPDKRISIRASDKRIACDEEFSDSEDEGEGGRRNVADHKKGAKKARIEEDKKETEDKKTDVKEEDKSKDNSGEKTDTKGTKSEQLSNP
T2 sequence (Q13547 whole entry): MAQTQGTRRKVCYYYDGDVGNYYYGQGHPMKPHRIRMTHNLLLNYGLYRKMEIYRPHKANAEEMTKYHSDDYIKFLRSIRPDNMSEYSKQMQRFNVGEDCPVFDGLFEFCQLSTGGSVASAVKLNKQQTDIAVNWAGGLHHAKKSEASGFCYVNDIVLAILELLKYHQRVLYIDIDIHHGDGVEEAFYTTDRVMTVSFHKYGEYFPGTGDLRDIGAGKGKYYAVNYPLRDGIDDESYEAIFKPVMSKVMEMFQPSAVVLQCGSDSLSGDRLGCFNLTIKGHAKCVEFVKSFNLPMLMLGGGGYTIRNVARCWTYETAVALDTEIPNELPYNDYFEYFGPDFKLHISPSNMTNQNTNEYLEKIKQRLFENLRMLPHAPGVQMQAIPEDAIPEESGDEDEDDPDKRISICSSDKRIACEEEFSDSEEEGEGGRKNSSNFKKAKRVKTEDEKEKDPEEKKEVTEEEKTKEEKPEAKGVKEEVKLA
Histone deacetylase 4, sequence (P56524 whole entry): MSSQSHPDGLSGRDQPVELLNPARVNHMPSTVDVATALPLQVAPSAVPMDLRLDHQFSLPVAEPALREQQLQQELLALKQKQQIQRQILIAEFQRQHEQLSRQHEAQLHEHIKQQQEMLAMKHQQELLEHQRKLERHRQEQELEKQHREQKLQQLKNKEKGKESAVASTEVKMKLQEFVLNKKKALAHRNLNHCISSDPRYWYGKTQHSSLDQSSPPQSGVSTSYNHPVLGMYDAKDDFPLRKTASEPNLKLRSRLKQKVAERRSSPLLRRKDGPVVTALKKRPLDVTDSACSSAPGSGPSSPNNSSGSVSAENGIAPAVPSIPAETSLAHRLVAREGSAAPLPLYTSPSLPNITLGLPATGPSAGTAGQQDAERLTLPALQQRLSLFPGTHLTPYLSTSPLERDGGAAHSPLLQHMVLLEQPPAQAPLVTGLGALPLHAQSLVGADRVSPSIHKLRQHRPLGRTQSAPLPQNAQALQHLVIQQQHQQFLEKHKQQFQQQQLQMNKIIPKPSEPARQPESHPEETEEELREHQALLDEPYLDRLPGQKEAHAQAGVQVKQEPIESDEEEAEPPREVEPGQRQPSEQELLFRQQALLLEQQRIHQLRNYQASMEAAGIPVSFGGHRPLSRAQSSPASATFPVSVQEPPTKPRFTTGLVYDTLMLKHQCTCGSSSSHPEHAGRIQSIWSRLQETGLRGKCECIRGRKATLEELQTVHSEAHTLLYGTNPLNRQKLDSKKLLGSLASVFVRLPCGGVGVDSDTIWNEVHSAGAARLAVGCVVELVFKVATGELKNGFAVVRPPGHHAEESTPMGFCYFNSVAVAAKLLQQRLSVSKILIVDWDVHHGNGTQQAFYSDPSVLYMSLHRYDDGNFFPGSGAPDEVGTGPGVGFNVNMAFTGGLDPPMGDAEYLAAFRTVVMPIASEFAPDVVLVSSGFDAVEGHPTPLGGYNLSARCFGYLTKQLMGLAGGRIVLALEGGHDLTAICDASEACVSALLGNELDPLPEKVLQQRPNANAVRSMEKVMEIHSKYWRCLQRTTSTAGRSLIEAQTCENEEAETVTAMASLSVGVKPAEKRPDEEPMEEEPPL

| SMILES | inhibition [1] [%] | inhibition [2] [%] | inhibition [3] [%] | inhibition [4] [%] | Cell viability [5] [%] | inhibition [6] [%] | inhibition [7] [%] | inhibition [8] [%] | inhibition [9] [%] | remaining at 72 h [11] [%] | IC50 [12] [nM] | remaining at 48 h [13] [%] | IC50 [14] [nM] | IC50 [15] [nM] | remaining at 24 h [16] [%] | IC50 [17] [nM] | IC50 [18] [nM] | remaining at 12 h [19] [%] | remaining at 6 h [20] [%] | IC50 [21] [nM] | other results |
| --- | --- | --- | --- | --- | --- | --- | --- | --- | --- | --- | --- | --- | --- | --- | --- | --- | --- | --- | --- | --- | --- |
| CCCNNC(=O)c1cnc(NCCc2ccccc2)nc1 | 39 | 51 | 87 | 51 | 80.5 | 41 | 90 | 85 | 89 | – | – | – | – | – | – | – | – | – | – | – | – |
| CCCCCCNNC(=O)c1ccc(C)c(NCc2ccccc2)c1 | 5 | 9 | 42 | 2 | 41.7 | 9 | 26 | 35 | 100 | – | – | – | – | – | – | – | – | – | – | – | – |
| COc1cccc2c1C(=O)c1c(O)c3c(c(O)c1C2=O)C[C@@](O)(C(C)=O)C[C@@H]3O[C@H]1C[C@H](N)[C@H](O)[C@H](C)O1 [DAUNORUBICIN] | – | – | – | – | – | – | – | – | – | – | – | – | – | – | – | – | – | – | – | – | IC50 [10]: 1200 nM |
| CCCNNC(=O)c1ccc(-c2ccc(CNC(C)=O)cc2)cc1 | – | – | – | – | 83.9 | – | – | – | – | 86.8 | 1800 | 90.4 | 700 | 1600 | 94.9 | 91 | > 20000 | 97.3 | 98.3 | 990 | IC50 [22]: 630 nM |
| CCCNNC(=O)c1cnc(N2CCN(Cc3c[nH]c4ccccc34)CC2)nc1 | – | – | – | – | 47 | – | – | – | – | 31.1 | 570 | 27.1 | 8.2 | 73 | 82.9 | 30 | > 20000 | 83.3 | 81.7 | > 20000 | Activity [23]: Active; Ki [24]: 5.5 nM; inhibition [25]: Active; IC50 [22]: 1100 nM |

From ChEMBL document CHEMBL5150060 (J Med Chem, 2022)
